Key:
[1] = test system: MCD4 cells; assay: Uptake into cells by mass spectrometry; type: in vitro ADME, mouse; settings: data not shown
[2] = biological target: His6-GST fusion protein (Schistosoma japonicum, UniProt P08515); assay: HTRF control assay with His6-GST fusion protein; type: binding; settings: control for interference with tags or antibodies
Protocol: The assay was essentially carried out as described. Scaff10 derivatives were added to His6-AKAP-Lbc/DHPH protein (250 nM final concentration) in HTRF buffer (PBS; 4 mM MgCl2; 0.05% Tween 20) in 384 well plates (Proxiplate-384 Plus, white, #6008289; Perkin Elmer LAS, Rodgau, Germany). Concentrations of Scaff10 derivatives ranged between 1.56–200 μM (2% DMSO final concentration); HTRF buffer with 2% DMSO served as a control. GST-RhoA (30 nM final concentration) in HTRF buffer and anti-GST antibody coupled to terbium (donor) and anti-His6-tag antibody coupled to XL665 (acceptor) were added to all wells (final antibody concentration: 2 μg/ml). After 1 h incubation at room temperature in the dark, FRET signals were recorded at 620 and 665 nm using a Genios Pro plate reader (Tecan Austria GmbH, Grödig, AT) and the ratios of […] to 620 nm were calculated. Wells containing no compound were set to 100% interaction of AKAP-Lbc/DHPH with RhoA, wells containing GST-RhoA only (without His6-AKAP-Lbc/DHPH) were set to 0% interaction. To exclude any interference of the tags and/or antibodies with Scaff10 derivatives, a His6-GST fusion protein replaced the two tagged proteins in a control assay. Wells containing His6-GST fusion protein were set to 100% interaction of His6-GST, wells containing no fusion protein were set to 0% interaction.

[3] = test system: IMCD, MCD4, HEK293, MCF7 and H9C2 cells; assay: MTS cytotoxicity assay; type: cell-based, rat, mouse, human; settings: 3–100 μM, 24–72 h
Protocol: The potential cytotoxicity of Scaff10-8 on primary IMCD and several permanent cell lines (MCF7, H9C2, HEK293, MCD4) was assessed using the tetrazolium compound-based CellTiter 96 AQueous One Solution Cell Proliferation (3-(4,5-dimethylthiazol-2-yl)-5-(3-carboxymethoxyphenyl)-2-(4-sulfophenyl)-2H-tetrazolium) (MTS) assay according to the instructions of the manufacturer. In brief, the cells were seeded into 96 well plates (5,000 cells per well) and cultured in their appropriate medium Scaff10-8 (100 μM, 30 μm and 3 μm, 0.3% final DMSO concentration) were added, DMSO (0.3%) was included as a control. Staurosporine (1 μM) was included as a positive control. All conditions were tested in quadruplicate. At the indicated time points, the MTS reagent was added. Absorption was determined 4 h after addition of MTS reagent at 450 nm wavelength. The MST reagent absorbance at 450 nm is proportional to the amount of living cells. A blank measurement determined the medium absorption (background). Values were normalized to untreated cells after 24 h for each cell line.
Fig 6 Scaff10-8 is not cytotoxic. […] (B) Cytotoxicity was assessed after 24–72 h of incubation with Scaff10-8 (3, 30, 100 μM). […] Absorption was determined at 450 nm and was related to medium absorption (blank). […] Statistically significant differences were determined applying one-way ANOVA with posthoc Bonferroni. […]

His6-GST fusion protein, sequence (P08515 whole entry, the tested form may be a part): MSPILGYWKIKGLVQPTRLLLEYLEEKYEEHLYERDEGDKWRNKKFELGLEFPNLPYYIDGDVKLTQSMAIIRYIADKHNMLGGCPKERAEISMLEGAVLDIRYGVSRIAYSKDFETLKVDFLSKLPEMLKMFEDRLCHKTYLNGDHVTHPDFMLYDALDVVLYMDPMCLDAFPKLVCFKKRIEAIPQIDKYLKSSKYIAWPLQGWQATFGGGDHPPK

How did the uptake into cells [1] turn out when COc1ccc(-c2coc3cc4oc(=O)c(CCC(=O)O)c(C)c4cc23)cc1 [Scaff10-8, 3-[3-(4-Methoxyphenyl)-5-methyl-7-oxo-furo[3,2-g]chromen-6-yl] propanoic acid] was run?
The uptake into cells was “confirmed the uptake”.

What about the “interaction with His-GST fusion protein” value [2] of the same compound?
The value was “does not interact”.

What about the “viability of cells (MTS)” value [3] of the same compound?
The value was “did not influence the viability”.

Source: PMC5786306, “An AKAP-Lbc-RhoA interaction inhibitor promotes the translocation of aquaporin-2 to the plasma membrane of renal collecting duct principal cells” (PLoS ONE, 2018)
